We go through 7 molecules from patent US20260256763A1, “Aromatic Amide Derivative, And Preparation Method Therefor And Use Thereof” (Zhejiang Hisun Pharmaceutical Co., Ltd., priority 2023, published 2026).

Assay [1] has as its system OVCAR-3 human ovarian adenocarcinoma tumor fragment xenograft. Briefly: Pharmacodynamic testing in OVCAR-3 tumor fragment xenograft model. Type of assay: in vivo, BALB/c nude mice. The conditions noted are these: 16 days after administration; for Tumor volume (x ± S): mean ± standard error, in mm³. The method, then:
An anti-tumor effect of Compound 1 of the present invention in a BALB/c nude mouse animal model with subcutaneous OVCAR-3 human ovarian adenocarcinoma tumor fragment xenograft was evaluated.
BALB/c nude mice, female, 6-7 weeks old, purchased from Jiangsu Gempharmatech Biotechnology Co., Ltd.
Mice in a solvent control group were given DMA:CrEL:5% GS=10:10:80 (v:v:v).
AMG650: a proper amount of AMG-650 was weighed, proper amounts of DMA, CrEL and 5% GS were added in sequence, and the obtained system was evenly mixed by ultrasonic vortex to prepare 0.8 mg/mL and 0.4 mg/mL preparations respectively, wherein DMA, CrEL and 5% GS=10:10:80 (v:v:v).
Compound 1: a proper amount of Compound 1 was weighed, proper amounts of DMA, CrEL and 5% GS were added in sequence, and the obtained system was evenly mixed by ultrasonic vortex to prepare 0.8 mg/mL and 0.4 mg/mL preparations respectively, wherein DMA, CrEL and 5% GS=10:10:80 (v:v:v).
An appropriate OVCAR-3 tumor-bearing animal was selected, a 1 mm×1 mm×1 mm OVCAR-3 tumor fragment was acquired aseptically and placed into normal saline for later use, which was used for subcutaneous tumor inoculation in a right side of back of the BALB/c nude mice.
About 1 mm×1 mm×1 mm OVCAR-3 tumor fragment was subcutaneously inoculated in the right side of back of the female BALB/c nude mice. When an average tumor volume reached about 100-250 mm^3, the mice were randomly grouped according to the tumor size, with 6 mice in each group.
Animals in each group were given the test compound once per day according to an animal weight at a fixed time every day by oral administration (po), the animals started to be administered with the test compound for the first time on the day of grouping for 22 consecutive days, and the animal weight was recorded every day. • The 1st group (G1) was a solvent control group; • The 2nd group (G2) and the 3rd group (G3) were orally administered with AMG-650 at administration dosages of 8 mg/kg and 4 mg/kg respectively once per day (QD); and • The 4th group (G4) and the 5th group (G5) were orally administered with Compound 1 at administration dosages of 8 mg/kg and 4 mg/kg respectively once per day (QD).
Tumor formation at an inoculation site of the animals in each group was observed, and a tumor volume was measured twice per week, and calculated according to the following formula: • a tumor volume (TV), a relative tumor volume (RTV), a relative tumor proliferation rate (T/C) and a relative tumor inhibition rate (TGI) were calculated according to the following formulas:
TV (tumor volume)=½×a×b^2, wherein a and b respectively represented a tumor length and a tumor width; (1)
RTV (relative tumor volume)=Vt/V0, wherein V0 was a tumor volume measured at the time of grouping, and Vt was a tumor volume in each measurement; (2)
T/C (%)=TRTV/CRTV×100%, wherein TRTV was RTV of a treatment group, and CRTV was RTV of a solvent control group; and (3)
TGI %=(1−T/C)×100%, wherein T and C were relative tumor volumes of the treatment group and the solvent control group at a specific time point respectively. (4)

In another assay the test system is OVCAR-3 cells. Briefly: Inhibition on OVCAR-3 cell proliferation (CellTiter-Glo). The assay is classed as cell-based. The conditions noted are these: Homo sapiens, OVCAR-3 cells (TP53 R248Q mutation), 72 hours. The method, then: Influences of the compounds of the present invention on OVCAR-3 cell proliferation were determined by the following method. OVCAR-3 cells (containing TP53 R248Q mutation) were purchased from the Cell Bank of Shanghai Institute of Biochemistry and Cell Biology, Chinese Academy of Sciences, and cultured in an RPMI 1640 culture medium containing […], 100 U penicillin and 100 μg/mL streptomycin. A cell viability was determined by a CellTiter-Glo® Luminescent Cell Viability Assay kit (Promega, article number G7573).
(§1) An experimental method was operated according to steps in the instruction of the kit, which was briefly described as follows: a test compound was dissolved in DMSO first to prepare a 10 mM stock solution, then the stock solution was diluted with the above RPMI 1640 culture medium to prepare a test sample, and a final concentration of the compound was in a range of 1000 nM-0.015 nM. Cells in a logarithmic growth phase were inoculated into a 96-well cell culture plate at a density of 1000 cells per well, cultured in a 5% CO2 incubator at 37° C. overnight, and then the test compound was added to continuously culture for 72 hours. After the culture was ended, 50 μL of CellTiter-Glo detection solution was added to each well, the plates were shaken for 5 minutes, and then allowed to stand for 10 minutes, and subsequently, a luminous value of each well of sample was read by a microplate reader in a Luminescence mode. By comparing with a numerical value of a control group (0.3% DMSO), a percentage inhibition rate of the compound at each concentration was calculated, and then nonlinear regression analysis was carried out based on concentration logarithm-inhibition rate of the compound in GraphPad Prism 5 software, so as to obtain an IC50 value of the compound in inhibition on cell proliferation, which are shown in Table 1.
On the technique in general: ATP-based viability assays read luminescence as a measure of living cells.

For another assay, the system named is HT-29 cells. As to the kind of experiment: Inhibition on HT-29 cell proliferation (CellTiter-Glo). The following applies: Homo sapiens, HT-29 cells (TP53 R273H mutation), 120 hours. The assay is classed as cell-based. Here is the method: Influences of the compounds of the present invention on HT-29 cell proliferation were determined by the following method. HT-29 cells (containing TP53 R273H mutation) were purchased from the Cell Bank of Shanghai Institute of Biochemistry and Cell Biology, Chinese Academy of Sciences, and cultured in a McCOY's 5A culture medium containing 10% fetal bovine serum, 100 U penicillin and 100 μg/mL streptomycin. A cell viability was determined by a CellTiter-Glo® Luminescent Cell Viability Assay kit (Promega, article number G7573).
as §1, with “McCOY's 5A” for “RPMI 1640”, “120” for “72”, “µL” for “μL”, “2.” for “1.”

The target of a further assay is T1, recombinant human KIF18A (Homo sapiens, UniProt Q8NI77).
T1 construct: purchased GenScript
As to the kind of experiment: Inhibition on KIF18A enzyme activity (ADP-Glo). The following applies: recombinant human KIF18A 100 nM, ATP 60 μM. Type of assay: biochemical. Here is the method:
Inhibition degrees of the compounds of the present invention on recombinant human KIF18A enzyme activity in vitro were determined by the following method. An ADP-Glo™ Kinase Assay kit (article number V9102) from Promega Company was used in this method. Detailed experimental operation can be referred to the instruction of the kit.
The reaction was carried out in a 384-well microplate. The test compound and the recombinant human KIF18A protein (final concentration of 100 nM, entrusted to GenScript for expression) were added into the wells and incubated at room temperature for 20 minutes, and subsequently, ATP solution (component V915A from the ADP-Glo™ Kinase Assay kit, final concentration of 60 μM) was added to the reaction solution and the obtained system was incubated at room temperature for 20 minutes. Subsequently, 5 μL of ADP-Glo Reagent was added to the reaction system and the obtained system was incubated at room temperature for 50 minutes. Then, 10 μL of Kinase Detection Reagent was added to the reaction system, and the obtained system was incubated at room temperature for 30 minutes. After the incubation was ended, a chemiluminiscence intensity value of each well was determined by a microplate reader in a Luminescence mode.

One may read the TGI as how far tumour growth fell short of that in controls. A lower TGI goes with a weaker effect on the tumour. The term pIC50 denotes the negative decadic logarithm of the IC50, by convention in mol/L.

pIC50: −log10 of the molar value.

T1 sequence (Q8NI77 whole entry): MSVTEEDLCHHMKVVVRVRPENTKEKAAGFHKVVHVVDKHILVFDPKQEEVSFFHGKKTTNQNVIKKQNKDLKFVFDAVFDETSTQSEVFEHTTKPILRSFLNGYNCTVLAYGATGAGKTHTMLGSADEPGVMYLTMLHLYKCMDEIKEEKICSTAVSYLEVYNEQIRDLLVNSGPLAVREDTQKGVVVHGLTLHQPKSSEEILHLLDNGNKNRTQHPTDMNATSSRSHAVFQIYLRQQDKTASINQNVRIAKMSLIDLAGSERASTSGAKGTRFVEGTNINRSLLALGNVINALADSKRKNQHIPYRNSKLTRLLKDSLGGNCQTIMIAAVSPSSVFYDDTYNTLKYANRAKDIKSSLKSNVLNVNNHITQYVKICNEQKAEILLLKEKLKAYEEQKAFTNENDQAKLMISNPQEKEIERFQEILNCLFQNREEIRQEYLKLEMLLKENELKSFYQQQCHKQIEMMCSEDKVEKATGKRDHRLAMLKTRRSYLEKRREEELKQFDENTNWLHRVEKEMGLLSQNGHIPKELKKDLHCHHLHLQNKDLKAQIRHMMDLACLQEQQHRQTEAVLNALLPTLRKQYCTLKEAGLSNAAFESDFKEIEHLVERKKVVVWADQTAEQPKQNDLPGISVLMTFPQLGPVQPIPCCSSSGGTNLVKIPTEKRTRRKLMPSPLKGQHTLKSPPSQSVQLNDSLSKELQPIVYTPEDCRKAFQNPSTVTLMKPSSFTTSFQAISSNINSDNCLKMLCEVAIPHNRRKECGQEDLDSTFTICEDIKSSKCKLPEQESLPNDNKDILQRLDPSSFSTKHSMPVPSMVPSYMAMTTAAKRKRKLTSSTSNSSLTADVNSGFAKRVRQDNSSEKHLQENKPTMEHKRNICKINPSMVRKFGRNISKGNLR
T1 sequence (P68363 whole entry partner): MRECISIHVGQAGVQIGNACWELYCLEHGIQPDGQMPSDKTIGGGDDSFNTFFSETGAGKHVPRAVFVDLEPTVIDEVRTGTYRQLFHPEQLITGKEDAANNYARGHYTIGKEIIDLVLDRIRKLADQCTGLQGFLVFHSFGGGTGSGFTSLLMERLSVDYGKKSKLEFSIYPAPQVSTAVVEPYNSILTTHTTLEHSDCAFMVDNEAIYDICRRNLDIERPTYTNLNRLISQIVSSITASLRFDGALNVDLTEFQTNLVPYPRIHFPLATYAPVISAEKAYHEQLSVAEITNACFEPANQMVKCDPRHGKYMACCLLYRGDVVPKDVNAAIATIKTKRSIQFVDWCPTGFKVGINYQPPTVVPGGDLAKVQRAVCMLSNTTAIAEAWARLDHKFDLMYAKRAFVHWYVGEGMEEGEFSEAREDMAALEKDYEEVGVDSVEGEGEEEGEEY
T1 sequence (Q9BVA1 whole entry partner): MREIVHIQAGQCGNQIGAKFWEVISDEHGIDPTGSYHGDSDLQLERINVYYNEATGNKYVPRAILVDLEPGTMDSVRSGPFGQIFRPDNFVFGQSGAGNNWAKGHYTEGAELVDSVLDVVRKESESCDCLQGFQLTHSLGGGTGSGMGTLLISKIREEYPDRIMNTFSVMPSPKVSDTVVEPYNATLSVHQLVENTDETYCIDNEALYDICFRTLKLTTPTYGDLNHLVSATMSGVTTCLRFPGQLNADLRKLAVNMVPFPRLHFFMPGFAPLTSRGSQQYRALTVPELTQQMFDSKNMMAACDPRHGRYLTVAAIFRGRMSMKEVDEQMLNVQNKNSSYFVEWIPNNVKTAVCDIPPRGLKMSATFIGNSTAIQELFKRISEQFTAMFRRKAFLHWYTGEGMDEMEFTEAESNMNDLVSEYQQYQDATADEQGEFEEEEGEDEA

As to `Cc1cc(NC(=O)c2ccc(NS(=O)(=O)CCO)cc2N2CCC3(CC2)CC3)nc(N2CCC(F)(F)CC2)n1` [AMG 650, reference compound], the results for the TGI in assay [1] (4 mg/kg po QD) and in assay [1] (8 mg/kg po QD) were 15.3% and 60.5%, respectively. The “Tumor volume (x ± S)” value in assay [1] (4 mg/kg po QD) is 511 ± 49; in assay [1] (8 mg/kg po QD), 243 ± 35.

Turning to `CCS(=O)(=O)Nc1ccc(C(=O)Nc2cc3c(c(N4CCC(F)(F)CC4)c2)OCCO3)c(N2CCC3(CC2)CC3)c1` [Example 14, N-(8-(4,4-difluoropiperidin-1-yl)-2,3-dihydrobenzo[b][1,4]dioxin-6-yl)-4-(ethylsulfonamido)-2-(6-azaspiro[2.5]octan-6-yl)benzamide], the pIC50 is 8.08 in the assay with OVCAR-3 cells, 8.04 with HT-29 cells and 6.74 on recombinant human KIF18A.

Regarding `CCS(=O)(=O)Nc1ccc(C(=O)Nc2cc(N3CCC(F)(F)CC3)c3cnn(C)c3c2)c(N2CCC3(CC2)CC3)c1` [Example 16, N-(4-(4,4-difluoropiperidin-1-yl)-1-methyl-1H-indazol-6-yl)-4-(ethylsulfonamido)-2-(6-azaspiro[2.5]octan-6-yl)benzamide], the pIC50 is 7.44 in the assay with OVCAR-3 cells, 7.45 in the assay with HT-29 cells and 6.68 at recombinant human KIF18A.

Turning to `CCS(=O)(=O)Nc1ccc(C(=O)Nc2cc(N3CCC(F)(F)CC3)c3[nH]ncc3c2)c(N2CCC3(CC2)CC3)c1` [Example 21, N-(7-(4,4-difluoropiperidin-1-yl)-1H-indazol-5-yl)-4-(ethylsulfonamido)-2-(6-azaspiro[2.5]octan-6-yl)benzamide], the pIC50 in the assay with OVCAR-3 cells is 7.78; with HT-29 cells it was 7.86; at recombinant human KIF18A it was 6.64.

Consider `CCS(=O)(=O)Nc1ccc(C(=O)Nc2cc3c(c(N4CCC(F)(F)CC4)c2)C(=O)NC3)c(N2CCC3(CC2)CC3)c1` [Example 23, N-(7-(4,4-difluoropiperidin-1-yl)-1-oxoisoindolin-5-yl)-4-(ethylsulfonamido)-2-(6-azaspiro[2.5]octan-6-yl)benzamide], for which the pIC50 is 8.44 in the assay on OVCAR-3 cells, 8.24 with HT-29 cells and 6.91 at recombinant human KIF18A.

Turning to `CCS(=O)(=O)Nc1ccc(C(=O)Nc2cc(N3CC(F)(F)C3)c3nn(C)cc3c2)c(N2CCC3(CC2)CC3)c1` [Example 24, N-(7-(3,3-difluoroazetidin-1-yl)-2-methyl-2H-indazol-5-yl)-4-(ethylsulfonamido)-2-(6-azaspiro[2.5]octan-6-yl)benzamide], the pIC50 was 7.87 in the assay on OVCAR-3 cells, 8.39 with HT-29 cells and 7.07 on recombinant human KIF18A.

With `CN1Cc2cc(NC(=O)c3ccc(NS(=O)(=O)CCO)cc3N3CCC4(CC3)CC4)cc(N3CCC(F)(F)CC3)c2C1=O` [Example 28, N-(7-(4,4-difluoropiperidin-1-yl)-2-methyl-1-oxoisoindolin-5-yl)-4-((2-hydroxyethyl)sulfamine)-2-(6-azaspiro[2.5]octan-6-yl)benzamide], the pIC50 in the assay with OVCAR-3 cells was 8.17; in the assay on HT-29 cells, 7.72; on recombinant human KIF18A, 6.85.
